Assays:
Type in all cases: cell-based, human
[1] = system: caspase-8, caspase-7, cleaved caspase-3, PARP, Fas/CD95, Fas-L, TNF-R1 in A2780 cells; assay: Immunoblot of apoptotic marker proteins and death receptors
Description: (§1) Cells in RPMI 1640 were treated with DMSO (control) or HO-3867 (10 μmol/L) for 24 hours. Equal volumes of DMSO (0.1% v/v) were present in each treatment. Following treatment, the cell lysates were prepared in non-denaturing lysis buffer containing 10 mmol/L Tris-HCl (pH 7.4), 150 mmol/L NaCl, 1% Triton X-100, 1 mmol/L EDTA, 1 mmol/L EGTA, 0.3 mmol/L phenylmethyl-sulfonyl fluoride, 0.2 mmol/L sodium orthovanadate, 0.5% NP40, 1 μg/mL aprotinin, and 1 μg/mL leupetin. The lysates were centrifuged at 10,000×g for 20 minutes at 4° C. and the supernatant was separated. The protein concentration in the lysates was determined using a Pierce detergent-compatible protein assay kit. For Western blotting, 25 to 50 μg of protein lysate per sample were denatured in 2×SDS-PAGE sample buffer and subjected to SDS-PAGE on a 10% tris-glycine gel. The separated proteins were transferred to a polyvinylidene fluoride membrane and were blocked with 5% nonfat milk powder (w/v) in TBST (10 mmol/L Tris, 10 mmol/L NaCl, 0.1% Tween 20) for 1 hour at room temperature or overnight at 4° C. The membranes were then incubated with the primary antibodies. The bound antibodies were detected with horseradish peroxidase-labeled sheep anti-mouse IgG or horseradish peroxidase-labeled donkey anti-rabbit IgG using an enhanced chemiluminescence detection system (ECL Advanced kit). Protein expressions were determined using the Image Gauge v. 3.45 software.

[2] = system: Bcl-xL, Bcl-2, survivin, VEGF, and cyclin D1 in A2780 cells; assay: Western blot of STAT3 target proteins; conditions: 10 and 20 μmol/L, 24-hour exposure
Description: as §1, with “Equal” for “Cells in RPMI 1640 were treated with DMSO (control) or HO-3867 (10 μmol/L) for 24 hours. Equal”, “software. […]” for “software.”

[3] = system: A2780 cells; assay: Intracellular ROS by DCF fluorescence, A2780; conditions: 5 or 10 μM, 12 h
Description: The ROS levels in cells treated with DAPs were determined using H2DCF-DA, a membrane-permeative fluorogenic probe. The acetate and acetoxymethyl ester groups of this probe are enzymatically cleaved inside living cells. The probe can then be oxidized by intracellular oxidants (ROS) to give a product, DCF, which emits a strong, green fluorescence (λex=504 nm; λem=529 nm). The fluorescence intensity is proportional to the level of cellular oxidants. Cells, grown to 80% confluence on 6-mm glass coverslips, were treated with […] H-4073, HO-3867, H-4318, or HO-4200 for 12 h, followed by incubation with H2DCF-DA. The cells were further incubated in the dark for 20 min and washed with protein-free medium, and then fluorescence images were immediately captured with a Nikon Eclipse TE2000-U camera system using excitation/emission at 495/520 nm. The captured images were then analyzed using MetaMorph image analysis software.

[4] = system: A2780 and SKOV3 cells; assay: Cell-invasion (Boyden chamber) assay; conditions: 10 μM
Description: Cell-migration assay was performed by wound-healing method. Cells were plated at equal density and grown to 90% confluence. Wounds were created using a sterile pipette tip. Cells were then rinsed with medium and replaced with the fresh medium and incubated with HO-3867 (10 μM). Areas of wound were marked and photographed at various time-points with a phase-contrast microscope. Cell-invasive assay was measured by an in vitro Boyden chamber assay. Briefly, 1×10^5 cells in 0.5 ml of serum-free RPMI 1640 medium were added to the wells of 8-μm-diameter pore membrane Boyden chambers, either coated with (BD Biosciences, Franklin Lake, N.J.) or without (Corning, Corning, N.Y.) Matrigel. Cells were allowed to invade for 24 hours. Cells that had not penetrated the filters were removed by scrubbing with cotton swabs. Chambers were fixed in 100% methanol for 2 min, stained in 0.5% crystal violet for 2 min, rinsed in PBS and examined using a bright-field microscope. Values for invasion were obtained by counting five fields per membrane and represented as the average of three independent experiments performed over multiple days.

CC1(C)C=C(CN2C/C(=C\c3ccc(F)cc3)C(=O)/C(=C/c3ccc(F)cc3)C2)C(C)(C)N1O [HO-3867, 1-[(1-oxyl-2,2,5,5-tetramethyl-2,5-dihydro-1H-pyrrol-3-yl)methyl]-(3E,5E)-3,5-bis(4-fluorobenzylidene)piperidin-4-one]
level of activated caspases (caspase-8, caspase-7, cleaved caspase-3) and PARP ([1]; 24 hours, versus nontreated cells): significant increase
Fas-L level ([1]; data not shown): no significant change
expression level of TNF-R1 ([1]; data not shown): unchanged
Fas/CD95 expression ([1]; versus nontreated group): clear increase
Bcl-xL, Bcl-2, survivin, and VEGF levels [2]: clear reduction
cyclin D1 level [2]: no significant change
intracellular ROS generation (DCF fluorescence) in A2780 cells [3]: comparable in inducing ROS generation
cell invasion ([4]; 24 hours, versus untreated cells): significant inhibition
VEGF-induced invasion ([4]; 24-h incubation, versus VEGF group): significantly inhibited

Reference: US20120316203A1, “Compositions and Methods for Inhibition of Cancers” (THE OHIO STATE UNIVERSITY RESEARCH FOUNDATION, priority 2009, published 2012)
